Experiments:
[1] = system: HS-PSS; experiment: drug sensitivity score (DSS, CellTiter-Glo viability, 72 h) (DSS (dimensionless)); higher = more sensitive; extreme values may be limits of the assay
Method in brief: (§1)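 MPNST cell lines and primary human Schwann cells were seeded at 750–1000 cells per well into 384-well plates preprinted with each compound at five concentrations in 10-fold steps, then incubated 72 h at 37 °C, 5% CO2. CellTiter-Glo ATP luminescence gave viability, scaled between vehicle and positive-control wells, with duplicates averaged where present. Curves were fitted with a four-parameter logistic model. Percent inhibition refers to the top concentration, while drug sensitivity score and relative IC50, censored at the top concentration, come from these fits.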

[2] = system: YST-1; experiment: as above
Method in brief: as §1

[3] = system: HS-Sch-2; experiment: as above
Method in brief: as §1

[4] = system: HS-PSS; experiment: drug sensitivity score (DSS, CellTox-Green cytotoxicity, 72 h) (DSS (dimensionless)); higher = more cytotoxic; extreme values may be limits of the assay
Method in brief: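 For 72 h at 37 °C, MPNST cell lines and primary human Schwann cells were exposed in 384-well plates to five 10-fold compound dilutions. CellTox-Green, added before seeding at a final 1:1000 dilution, gave fluorescence from DNA released by disrupted cells. Signals were scaled to vehicle and positive-control wells, cultures failing plate quality control were left out, and four-parameter logistic fits were applied. Relative IC50 and drug sensitivity score were derived from the fits, with IC50 censored at the top concentration.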

[5] = system: HS-PSS; experiment: % inhibition of CellTiter-Glo viability at highest tested concentration (72 h), relative to DMSO and benzethonium chloride controls; higher = more inhibition
Method in brief: as §1

[6] = system: YST-1; experiment: as above
Method in brief: as §1

[7] = system: HS-Sch-2; experiment: as above
Method in brief: as §1

Structure (SMILES)	drug sensitivity score [1]	drug sensitivity score [2]	drug sensitivity score [3]	drug sensitivity score [4]	% inhibition [5] [%]	% inhibition [6] [%]	% inhibition [7] [%]
O=c1[nH]c(C2CCCN2)nc2c1oc1ccc(Cl)cc12 (configuration not stated) (max concentration tested 10000 nM)	2.86	6.83	2.7	0	33.3	63.8	19.3
CC[C@@]1(O)C(=O)OCc2c1cc1n(c2=O)Cc2cc3ccccc3nc2-1 [Camptothecin] (max concentration tested 5000 nM)	14.9	23.6	22.2	10.2	93.1	99.6	99.9
C[C@@H]1CN(Cc2ccc(F)cc2)[C@@H](C)CN1C(=O)c1cc2c(C(=O)C(=O)N(C)C)cn(C)c2cc1Cl [Talmapimod] (max concentration tested 10000 nM)	0.11	6.19	0	0	13.9	37.4	-10
O=C(O)c1ccc(CN2CCC(CN[C@@H]3C[C@H]3c3ccccc3)CC2)cc1 (max concentration tested 10000 nM)	0	0	0	0	2.06	-3.86	-4.91
S=C(NCc1ccc2c(c1)OCO2)N1CCN(c2ncnc3c2oc2ccccc23)CC1 [Amuvatinib] (max concentration tested 10000 nM)	9.62	1.22	6.77	0	83.6	31.3	86.5
Cc1nc(NC(=O)N2CCC[C@H]2C(N)=O)sc1-c1ccnc(C(C)(C)C(F)(F)F)c1 [Alpelisib] (max concentration tested 2500 nM)	0.35	7.32	1.18	0	13	63.6	21.2
COc1ccc(Cn2ccc3ccc(C(=O)NO)cc32)cc1 (max concentration tested 10000 nM)	0.33	5.14	2.02	0	18.1	56.2	46.8
COc1cc(C(=O)O)ccc1NC(=O)[C@@H]1N[C@@H](CC(C)(C)C)[C@](C#N)(c2ccc(Cl)cc2F)[C@H]1c1cccc(Cl)c1F [Idasanutlin] (max concentration tested 10000 nM)	5.43	25.1	0	0	26.1	98.6	-12.1
O=C(NC[C@H](O)CN1CCc2ccccc2C1)c1cc(NC2COC2)ncn1 (max concentration tested 10000 nM)	0.24	0.06	0.29	0	17.6	14.1	10.7
COCC(=O)NC/C=C/c1ccc2ncnc(Nc3ccc(Oc4ccc(C)nc4)c(C)c3)c2c1 (max concentration tested 10000 nM)	5.3	0.62	3.05	0	56.7	19.9	32.2
CC(C)c1cc(C(=O)N2Cc3ccc(CN4CCN(C)CC4)cc3C2)c(O)cc1O [Onalespib] (max concentration tested 2500 nM)	13.2	12.6	21.4	6.31	81.9	75.8	101
Oc1ncc(N(CCCl)CCCl)c(O)n1 [Uramustine] (max concentration tested 10000 nM)	0	0	0	0	-0.55	1.38	3
Cc1nc(N)sc1-c1ccnc(Nc2ccc(N3CCOCC3)cc2)n1 [CYC-116] (max concentration tested 10000 nM)	6.5	8.36	4.97	0	65.9	58.8	54.2
O=C(NOC[C@H](O)CO)c1ccc(F)c(F)c1Nc1ccc(I)cc1F (max concentration tested 1000 nM)	0.01	0	0.69	0	12.4	-8.18	15
Cc1cnc(Nc2ccc(OCCN3CCCC3)cc2)nc1Nc1cccc(S(=O)(=O)NC(C)(C)C)c1 [Fedratinib] (max concentration tested 10000 nM)	9.41	8.29	10.8	3.87	96.5	87.1	102
Cc1cc2c(C(=O)NC[C@H](C)c3ccccc3)c(O)c(O)cc2c(O)c1-c1c(C)cc2c(C(=O)NC[C@H](C)c3ccccc3)c(O)c(O)cc2c1O [Sabutoclax] (max concentration tested 25000 nM)	4.91	17.3	19.6	0	96.5	89.2	99.7
CC[C@H](C)C(=O)O[C@H]1C[C@@H](C)C=C2C=C[C@H](C)[C@H](CC[C@@H]3C[C@@H](O)CC(=O)O3)[C@H]21 [Lovastatin] (max concentration tested 10000 nM)	0	0	0	0	-5.9	0.71	-6.45
O=C(Nc1nc2cccc(-c3ccc(CN4CCS(=O)(=O)CC4)cc3)n2n1)C1CC1 [Filgotinib] (max concentration tested 10000 nM)	0.09	1.97	2.01	0	14.3	45.2	35.7

Structure (SMILES)	drug sensitivity score [1]	drug sensitivity score [2]	drug sensitivity score [3]	drug sensitivity score [4]	% inhibition [5] [%]	% inhibition [6] [%]	% inhibition [7] [%]
O=S(=O)(c1cccc2c(O)nccc12)N1CCCNCC1 [Hydroxyfasudil] (max concentration tested 37500 nM)	1.21	0.03	1.47	0	19.5	12.7	21.6
COc1ncc(-c2ccc3nccc(-c4ccnnc4)c3c2)cc1NS(=O)(=O)c1ccc(F)cc1F [Omipalisib] (max concentration tested 1000 nM)	10.6	23.6	9.45	0	64.3	94	83.8
CNC(=O)c1cc(COc2nnc(Nc3ccc(Cl)cc3)c3ccoc23)ccn1 [Telatinib] (max concentration tested 10000 nM)	0	0.77	0	0	5.71	6.98	8.79
COc1ccc(Cl)c(Nc2nc3ccccc3nc2NS(=O)(=O)c2cccc(NC(=O)C(C)(C)N)c2)c1 [Pilaralisib] (max concentration tested 2500 nM)	0	2.53	0.34	0	7.45	42.6	14.3
C/C=C1\NC(=O)[C@H]2CSSCC/C=C/[C@H](CC(=O)N[C@H](C(C)C)C(=O)N2)OC(=O)[C@H](C(C)C)NC1=O [Romidepsin] (max concentration tested 1000 nM)	5.59	37.8	33	3.93	95.4	98.5	100
COC(=O)N[C@@H](C)CNc1nccc(-c2cn(C(C)C)nc2-c2cc(Cl)cc(NS(C)(=O)=O)c2F)n1 [Encorafenib] (max concentration tested 1000 nM)	2.1	0	0.12	0	14	3.93	14.4
O=C(NOCCO)c1ccc2cncn2c1Nc1ccc(I)cc1F [GDC-0623] (max concentration tested 2500 nM)	3.76	0	5.27	0.89	37.1	6.24	55
Cc1cc(OCc2nnc(SC3CCCC3)n2-c2cccnc2)ccc1-c1ccc(S(C)(=O)=O)cc1 [NMS-873] (max concentration tested 10000 nM)	22.9	9.52	19.2	5.58	99.9	99.9	101
Cn1cnc2c(F)c(Nc3ccc(Br)cc3F)c(C(=O)NOCCO)cc21 [Binimetinib] (max concentration tested 1000 nM)	0	0	0.81	0	7.79	6.26	21.1
COc1cc(Br)c(Nc2nc(-c3c(C)nc4ncccn34)cs2)c(Br)c1 [PTC-209] (max concentration tested 10000 nM)	7.63	6.29	7.96	0	84.8	94.4	81
N[C@@H](Cc1ccc(N(CCCl)CCCl)cc1)C(=O)O [Melphalan] (max concentration tested 12500 nM)	0	0	0	0	3.32	3.44	7.23
CCCC(CCC)C(=O)O [Valproic acid] (max concentration tested 1000000 nM)	0	2.34	0	0	6.13	44.2	2.29
O=C(Nc1cc(Cl)cc2c1[nH]c1cnccc12)c1cccnc1 [PS-1145] (max concentration tested 25000 nM)	0.49	3.62	0	0	13.7	16.9	5.78
CC1(C)CCC(CN2CCN(c3ccc(C(=O)NS(=O)(=O)c4ccc(NCC5CCOCC5)c([N+](=O)[O-])c4)c(Oc4cnc5[nH]ccc5c4)c3)CC2)=C(c2ccc(Cl)cc2)C1 [Venetoclax] (max concentration tested 1000 nM)	0	0.21	0	0	-9.6	16.4	0.97
COc1cc(Nc2ncc(F)c(Nc3ccc4c(n3)N(COP(=O)(O)O)C(=O)C(C)(C)O4)n2)cc(OC)c1OC [Fostamatinib] (max concentration tested 2500 nM)	2.95	4.22	2.96	0	40.4	67.3	36
N#CC1(c2ccc(NC(=O)c3cccnc3NCc3ccncc3)cc2)CCCC1 [Apatinib] (max concentration tested 10000 nM)	0	1.19	0	0	11.6	18.9	-2.67
O=c1cc(N2CCOCC2)oc2c(-c3ccccc3)cccc12 (max concentration tested 100000 nM)	7.1	12	7.3	2.67	69.6	96.1	72.3
CCCCc1nc2cc(/C=C/C(=O)NO)ccc2n1CCN(CC)CC [Pracinostat] (max concentration tested 10000 nM)	12.4	22	15.9	6.63	94	100	101

— the supplement of paper PMC5579334
